Reference: patent US20140322348A1 (priority 2011, published 2014)

How the values were obtained:
cucumber downy mildew = experiment: Greenhouse trial against cucumber downy mildew, foliar sprays; details: rates TG 0.5%, potassium phosphite 0.4%
Protocol: Combinations of TTO (supplied as Timorex Gold®, 23.8% TTO) and a synthetic fungicidal composition (supplied Canon® 50 from Luxembourg Industries Ltd., Israel, containing 780 g potassium phosphite (equivalent to 500 g phosphorous acid) per liter) were tested against cucumber downy mildew. Greenhouse-grown plants were drip irrigated and fertilized according to known recommendations for this crop. Treatments were applied in a randomized complete block, with 5 replications per treatment. Plot size in each instance was of 7 m length, containing 14 plants. The TTO or potassium phosphite composition were diluted prior to use. Fungicidal treatment was applied using backpack sprayer equipped with a mist blower (STHIL 340) to spray a at a rate of 350 cc/dunam. Three foliar sprays were applied at 11-13 day intervals. Disease severity was evaluated by determining the leaf area covered with downy mildew (disease severity) on each of 20 leaves randomly selected per each replicate. […] To analyze the results, an arc-sin transformation was performed on the raw data, and analysis of variance (ANOVA) using the SAS GLM procedure was applied to the transformed data. The Tukey-Kramer Test was applied to determine whether differences between treatments were significant.

grapevine downy mildew = experiment: Vineyard trial against grapevine downy mildew, foliar sprays; details: seven days after third application, rates TG 0.3%, potassium phosphite 0.4%, Liquid Copper 0.25%; for % infected leaf area: grape "Superior"
Protocol: The Timorex Gold or synthetic fungicidal composition were diluted prior to use. At the outset, pre-harvest plants were moderately infected with downy mildew. The crops studied were drip irrigated and fertilized according to known recommendations. Treatments were applied in a randomized complete block, with 4 replications per treatment. Plot size in each instance was 8 m length. Fungicidal treatment was applied using backpack sprayer equipped with a mist blower (STHIL 340 with endpiece 3) to spray a volume of 100 liter/dunam (1000 liter/ha) Foliar sprays were applied on days 1, 10 and 17. The plants were inspected on day 1 (prior to spraying) and days 11, 18 and 24. At the beginning of the experiment, for each group, 5 plant extremities having single leafs were marked. The percent of coverage of downy mildew on a five square cm area was estimated before marking in order to estimate the efficacy in curing infection and after marking to estimate the efficacy in preventing infection. To analyze the results, an arc-sin transformation was performed on the raw data, and analysis of variance (ANOVA) using the SAS GLM procedure was applied to the transformed data. The Tukey-Kramer Test was applied to determine whether differences between treatments were significant.

With potassium phosphite the “Severity % infected leaf area” value (cucumber downy mildew; 11 days after third application) was 1.4%, the “Efficacy (%)” value (cucumber downy mildew; Incidence, seven days after third application) was 74.4% and the “Incidence % leaves infected” value (cucumber downy mildew; Seven days after third application) was 23.7%. The “Efficacy (%)” value (cucumber downy mildew; Severity, 11 days after third application) was 92.1%, the “% infected leaf area” value (grapevine downy mildew; Curative) was 28.25% and the “Efficacy (%)” value (grapevine downy mildew; Curative) was 25.2%. For the same substance, the “% infected leaf area” value (grapevine downy mildew; Protectant) was 14% and the “Efficacy (%)” value (grapevine downy mildew; Protectant) was 62.9%.
